Source: patent US7668586B2, “In vivo multiphoton diagnostic detection and imaging of a neurodegenerative disease” (Cornell Research Foundation, Inc., priority 2000, dated 2010)

How the values were obtained:
pial arteriole = test: Pial vessel reactivity, closed cranial window, vessel diameter measurement; details: 14-month-old Tg+ (four out of five, outlier excluded); ACh 10 and 25 μM, SNP 0.5 μM superfused
Description: Anesthesia was induced with 2.5% halothane and maintained in 1.0% halothane in 67% N2O and 33% O2. Mice were intubated transorally, placed in a stereotaxic frame and ventilated artificially (SAR-830/P, CWE, Ardmore, Pa.). End-tidal CO2 was continuously monitored by a microcapnometer (Columbus Instruments, Columbus, Ohio). The femoral artery and vein were cannulated with a polyethylene catheter (PE-10, Intramedic, Becton Dickinson) for continuous arterial blood pressure and heart rate monitoring and for drug infusion. Alpha-chloralose (80 mg/kg i.v.) was injected and halothane was withdrawn gradually for deepening of anesthesia. […] Arterial blood gas and pH were analyzed before drug superfusion. […]
Pial vessels were visualized with a video microscope system comprised of an intravital microscope (Leitz, Germany), CCD video camera (model 1300, Cohu Inc, San Diego, U.S.A.), a camera controller (C2400, Hamamatsu Photonics, Hamamatsu, Japan), video monitor (Sony, Japan), and a video recorder (Panasonic, Japan). The images were continuously recorded on videotape. The diameter of a single pial arteriole (20-30 μm) was measured per experiment by a video width analyzer (C3161, Hamamatsu Photonics) and recorded using the MacLab data acquisition and analysis system. […]

[1] = Fluorescent angiography after tail vein injection; details: injected into tail vein, at least 20 minutes prior to imaging
Protocol: The tail of the animal was warmed on a heating pad to dilate the blood vessels, and approximately 0.05 ml fluorescein (25 mg/ml) in sterile PBS was injected into a tail vein of the mouse at least 20 minutes prior to imaging.

amyloid plaques = amyloid plaques (Homo sapiens, UniProt P05067); test: In vivo multiphoton imaging of thioflavine S-positive amyloid; set-up: species or system Tg2576 mouse; details: dilute solution applied to brain, 750 nm 2-photon excitation
amyloid plaques, sequence (P05067 672-711 limits assumed): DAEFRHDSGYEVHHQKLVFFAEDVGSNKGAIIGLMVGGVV

With CC(=O)OCC[N+](C)(C)C [ACh, Acetylcholine] the “vessel dilation relative to control (non-transgenic) animals” value (pial arteriole) was “about 25%”.
In the case of O=C1OC2(c3ccc(O)cc3Oc3cc(O)ccc32)c2ccccc21 [fluorescein], the “crossing of the blood-brain barrier” value [1] is reported as “did not cross the blood-brain barrier”.
For Thioflavine S, the “depth to the surface of the cortex at which plaques were visualized” value (amyloid plaques) was “up to 150 μm”.
